Assay results as given in patent US20240122180A1, “FUNGICIDAL HALOMETHYL KETONES AND HYDRATES AND THEIR MIXTURES” (FMC Corporation, priority 2020, published 2024).
Marks after values point to notes of the source that are not given here.

Legend:
Assay type in all cases: in vivo
[1] = system: Phakopsora pachyrhizi (the causal agent of Asian soybean rust); assay: Test A: preventive spray on soybean seedlings, visual disease rating (100 = 100% control; * 50 ppm, ** 10 ppm, *** 250 ppm); conditions: 100 = 100% disease control
Procedure, shortened: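 Preventive test: one day after spraying compound (acetone/water suspension, 250 ppm PEG400), seedlings received rust spore inoculum, 24 h in saturated air then 8 days in growth chamber, both at 22 °C. Disease control scored visually, 100 = complete, 0 = none, relative to untreated controls.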

[2] = system: Puccinia recondita f. sp. tritici (the causal agent of wheat leaf rust); assay: Test B: preventive spray on wheat seedlings, disease rating (100 = 100% control; * 50 ppm, ** 10 ppm, *** 250 ppm); conditions: 100 = 100% disease control
Procedure, shortened: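 Preventive test: Puccinia recondita f. sp. tritici spores were inoculated one day after run-off spraying of wheat seedlings with test suspension (acetone/water 50/50, 250 ppm PEG400). After 24 h in saturated air and 6 days in a growth chamber, both at 20° C, control was scored 0–100 versus untreated plants.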

[3] = system: Uncinula necator (the causal agent of grape powdery mildew); assay: Test C: preventive spray on grape seedlings, disease rating (100 = 100% control; * 50 ppm, ** 10 ppm, *** 250 ppm); conditions: 100 = 100% disease control
Text: General protocol for preparing test suspensions for Tests A-E: the test compounds were first dissolved in acetone in an amount equal to 3% of the final volume and then suspended at the desired concentration (in ppm) in acetone and purified water (50/50 mix by volume) containing 250 ppm of the surfactant […] (polyhydric alcohol esters). The resulting test suspensions were then used in Tests A-E.
The test solution was sprayed to the point of run-off on grape seedlings. The following day the seedlings were inoculated with a spore suspension of Uncinula necator (the causal agent of grape powdery mildew) and incubated in a growth chamber at 20° C. for 12 days, after which time disease ratings were made.
Results for Tests A-E are given in Table A. In the Table, a rating of 100 indicates 100% disease control and a rating of 0 indicates no disease control (relative to the controls). An asterisk “*” or a double asterisk “**” or a triple asterisk “***” next to the rating value indicates a 50 ppm, 10 ppm and 250 ppm test suspension was used, respectively. A dash (-) indicates the compound was not tested.

[4] = system: Zymoseptoria tritici (the causal agent of wheat leaf blotch); assay: Test D: preventive spray on wheat seedlings, disease rating (100 = 100% control; * 50 ppm, ** 10 ppm, *** 250 ppm); conditions: 250 ppm test suspension, 100 = 100% disease control
Procedure, shortened: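 Compounds first dissolved in acetone (3% of final volume), then suspended in 50/50 acetone/water with 250 ppm PEG400 and sprayed to run-off on wheat seedlings; Z. tritici spores inoculated next day. Incubated saturated at 24° C. 48 h, then 20° C. 17 days; disease control rated 0–100 versus controls.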

[5] = system: Blumeria graminis f. sp. tritici (the causal agent of wheat powdery mildew); assay: Test E: preventive spray on wheat seedlings, visual disease rating (100 = 100% control; * 50 ppm, ** 10 ppm, *** 250 ppm); conditions: 250 ppm test suspension, 100 = 100% disease control
Procedure, shortened: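 Test suspension (3% acetone, acetone/water 50/50, 250 ppm PEG400) sprayed to run-off on wheat seedlings; inoculated next day with powdery mildew spore dust and kept 8 days at 20 °C. Visual rating, 100 = full and 0 = no control relative to untreated.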

[6] = 50 ppm test suspension, 0 = no control
[7] = 250 ppm test suspension, 0 = no control
[8] = 250 ppm test suspension, grape seedlings
[9] = 10 ppm test suspension, 0 = no control

SMILES	Test A disease control rating [1, 6] [%]	Test B disease control rating [2, 6] [%]	Test C disease control rating [3, 7]	Test D disease control rating ([4]; 0 = no control)	Test E disease control rating ([5]; 0 = no control)	Test A disease control rating [1, 9] [%]	Test B disease control rating [2, 9] [%]	further results
CCOC(=O)c1cnn(Cc2ccc(O/C=C(\OCC)C(F)(F)F)c(F)c2F)c1 [compound 430]	100	0	82*** %	3*** %	99*** %			
CCS(=O)(=O)N1CC(c2ccc(OCC3(C(F)(F)F)OCCO3)cc2)C1 [compound 382]	0	0	22*** %	4*** %	56*** %			
C=C(C)COC(=O)c1cnn(Cc2ccc(O/C=C(\OCC)C(F)(F)F)cc2)c1 [compound 242]								Test A disease control rating ([1]; 10 ppm test suspension, soybean seedlings): 100%; Test B disease control rating ([2]; 10 ppm test suspension, wheat seedlings): 0%; Test C disease control rating [3, 8]: 87*** %; Test D disease control rating ([4]; wheat seedlings): 27*** %; Test E disease control rating ([5]; wheat seedlings): 69*** %
CCO/C(=C\Oc1ccc(Cn2cc(C(=O)NC(C)C)cn2)cc1)C(F)(F)F [compound 118]								Test A disease control rating ([1]; 50 ppm test suspension, soybean seedlings): 100%; Test B disease control rating ([2]; 50 ppm test suspension, wheat seedlings): 0%; Test C disease control rating [3, 8]: 77*** %; Test D disease control rating ([4]; wheat seedlings): 13*** %; Test E disease control rating ([5]; wheat seedlings): 76*** %
O=C(NCC(F)(F)F)c1cnc(Cc2ccc(OCC3(C(F)(F)F)OCCO3)cc2)o1 [compound 257]			81*** %	35*** %	92*** %	54	0	
CCO/C(=C\Oc1ccc(Cn2cc(C(=O)N(CC)CC)cn2)cc1)C(F)(F)F [compound 438]	73	0	59*** %	26*** %	98*** %			
CCOC(=O)c1cnn(Cc2ccc(O/C=C(\OC(C)C)C(F)(F)F)cc2)c1 [compound 57]								Test A disease control rating ([1]; 250 ppm test suspension, soybean seedlings): 100%; Test B disease control rating ([2]; 250 ppm test suspension, wheat seedlings): 0%; Test C disease control rating [3, 8]: 64*** %; Test D disease control rating ([4]; wheat seedlings): 28%; Test E disease control rating ([5]; wheat seedlings): 95*** %
CCO/C(=C\Oc1ccc(Cn2cc(C(=O)NC3CC3)cn2)cc1)C(F)(F)F [compound 413]			61*** %	90*** %	35*** %	0	0	
CCO/C(=C\Oc1ccc(Cn2cc(C(=O)NCC(=O)OC)cn2)cc1)C(F)(F)F [compound 427]			5*** %	53*** %	29*** %	13	0	
CCO/C(=C\Oc1ccc(Cc2ncc(C(=O)NCC(F)F)s2)cc1)C(F)(F)F [compound 276]				53*** %	86*** %	13	0	Test C disease control rating [3, 6]: 100* %
CCOC(=COc1ccc(OC(=O)c2ccccc2F)cc1)C(F)(F)F [compound 379]	0	0	93*** %	0*** %	21*** %			
